# The source made the active and inactive calls. The calls are words filed in the database; no cut-off is given here.
# How the values were obtained:
# [1] = biological target: T1, GABA-A receptor; alpha-1/beta-2/gamma-2 (Homo sapiens) (UniProt P14867+P47870+P18507); test: Enhancement of current in Xenopus laevis oocytes expressing human GABA-Alpha1 receptor plus beta-2-gamma-2L upto 10 uM; type: functional, cell-based; details: Oocyte
# [2] = biological target: T2, GABA-A receptor; anion channel (Homo sapiens) (UniProt P14867+P47870+P18507+P28472+P48169+Q99928+Q9UN88+P34903+O00591+O14764+Q8N1C3+P18505+P78334+P47869+P31644+Q16445); test: Enhancement of [3H]flunitrazepam binding to cerebral cortex GABA-A receptor at 0.1 uM; type: tissue-based
# Xenopus sp. = test: Anesthetic activity in Xenopus tadpole measured as loss of righting reflex; type: functional, organism-based
# [3] = biological target: T3, Serotonin 3 (5-HT3) receptor (Homo sapiens) (UniProt P46098+A5X5Y0+O95264+Q70Z44+Q8WXA8); test: Inhibition of 5HT3 receptor at 0.22 uM; type: protein-complex assay
# [4] = biological target: T4, Acetylcholine receptor subunit delta (Torpedo californica) (UniProt P02718); test: Photolabeling of Torpedo californica delta nAChR in presence of agonist relative to in absence of agonist; type: functional; details: Tetronarce californica
# T4 sequence (whole entry): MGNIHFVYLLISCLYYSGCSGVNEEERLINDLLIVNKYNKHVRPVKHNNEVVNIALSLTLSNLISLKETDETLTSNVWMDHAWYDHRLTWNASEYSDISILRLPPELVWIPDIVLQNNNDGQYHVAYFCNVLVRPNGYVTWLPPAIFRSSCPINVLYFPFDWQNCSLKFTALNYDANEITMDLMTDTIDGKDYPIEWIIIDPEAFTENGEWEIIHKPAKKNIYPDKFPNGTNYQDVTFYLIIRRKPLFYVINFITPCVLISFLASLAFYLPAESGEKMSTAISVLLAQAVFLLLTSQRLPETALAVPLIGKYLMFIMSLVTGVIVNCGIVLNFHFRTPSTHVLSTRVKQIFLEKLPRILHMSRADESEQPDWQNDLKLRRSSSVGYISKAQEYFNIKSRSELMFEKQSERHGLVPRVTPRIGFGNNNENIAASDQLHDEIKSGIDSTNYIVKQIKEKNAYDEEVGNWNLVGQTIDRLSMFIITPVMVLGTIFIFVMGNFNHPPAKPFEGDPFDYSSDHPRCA
# [5] = biological target: T3, Serotonin 3 (5-HT3) receptor (Homo sapiens); test: Inhibition of 5HT3 receptor at 2.2 uM; type: protein-complex assay
# [6] = biological target: T2, GABA-A receptor; anion channel (Homo sapiens); test: Enhancement of [3H]flunitrazepam binding to cerebral cortex GABA-A receptor at >=0.3 uM; type: tissue-based
# [7] = biological target: T2, GABA-A receptor; anion channel (Homo sapiens); test: Reduction of [3H]flunitrazepam binding to cerebral cortex GABA-A receptor at 100 uM relative to control; type: tissue-based; design: scale not given: the % may be the effect or the level left
# [8] = biological target: T2, GABA-A receptor; anion channel (Homo sapiens); test: Enhancement of [3H]flunitrazepam binding to cerebral cortex GABA-A receptor at >=1 uM; type: tissue-based
# [9] = biological target: T3, Serotonin 3 (5-HT3) receptor (Homo sapiens); test: Inhibition of 5HT3 receptor at 2.3 uM; type: protein-complex assay
# [10] = biological target: Acetylcholine receptor subunit alpha (Torpedo californica) (UniProt P02710); test: Photolabeling of Torpedo californica alpha nAChR in presence of agonist relative to in absence of agonist; type: functional; details: Tetronarce californica
# Acetylcholine receptor subunit alpha (Torpedo californica), sequence (P02710 whole entry): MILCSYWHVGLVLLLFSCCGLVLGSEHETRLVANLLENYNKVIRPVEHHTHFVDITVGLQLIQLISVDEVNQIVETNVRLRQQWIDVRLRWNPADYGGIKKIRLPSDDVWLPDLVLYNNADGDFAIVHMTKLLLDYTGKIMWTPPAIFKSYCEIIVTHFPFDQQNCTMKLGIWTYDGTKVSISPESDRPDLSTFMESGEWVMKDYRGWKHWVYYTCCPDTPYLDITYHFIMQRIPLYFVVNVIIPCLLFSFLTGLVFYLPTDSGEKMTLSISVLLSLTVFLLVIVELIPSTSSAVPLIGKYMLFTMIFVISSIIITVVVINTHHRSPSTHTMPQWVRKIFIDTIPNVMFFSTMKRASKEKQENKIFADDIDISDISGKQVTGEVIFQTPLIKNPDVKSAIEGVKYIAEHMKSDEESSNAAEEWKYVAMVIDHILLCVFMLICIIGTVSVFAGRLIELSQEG
# [11] = biological target: T1, GABA-A receptor; alpha-1/beta-2/gamma-2 (Homo sapiens); test: Enhancement of current in Xenopus laevis oocytes expressing human GABA-Alpha1 receptor plus beta-2-gamma-2L upto 1 uM; type: functional, cell-based; details: Oocyte
# [12] = biological target: T3, Serotonin 3 (5-HT3) receptor (Homo sapiens); test: Inhibition of 5HT3 receptor at 0.7 uM; type: protein-complex assay
# [13] = biological target: T2, GABA-A receptor; anion channel (Homo sapiens); test: Enhancement of [3H]flunitrazepam binding to cerebral cortex GABA-A receptor at 1 uM; type: tissue-based
smiles,measurement,setting,value
C[C@H](c1ccccc1)n1cncc1C(=O)OCc1ccc(C(=O)c2ccccc2)cc1,Activity,[1],inactive
same,Activity,[2],Active
same,EC50,Xenopus sp.,220 nM
same,inhibition,[3],< 10%
C[N+](C)(C)CCOC(N)=O,Activity,[4],60%
CC(c1ccccc1)n1cncc1C(=O)OCCC1(C)N=N1 (stereo not drawn) [AZIETOMIDATE],inhibition,[5],8%
same,EC50,Xenopus sp.,2200 nM
same,Activity,[6],Active
same,Activity,[7],115%
CCOC(=O)c1cncn1[C@H](C)c1ccccc1 [ETOMIDATE],Activity,[8],Active
same,EC50,Xenopus sp.,2300 nM
same,inhibition,[9],11%
same,Activity,[7],78.5%
CCCC(C(=O)OCCN(CC)CC)(c1ccccc1)c1ccccc1,Activity,[10],70%
C[C@H](c1ccccc1)n1cncc1C(=O)OCc1ccc(C2(C(F)(F)F)N=N2)cc1,Activity,[11],inactive
same,EC50,Xenopus sp.,700 nM
same,inhibition,[12],< 10%
same,Activity,[13],Active

# — ChEMBL document CHEMBL1146862, “Synthesis of trifluoromethylaryl diazirine and benzophenone derivatives of etomidate that are potent general anesthetics and effective photolabels for probing sites on ligand-gated ion channels” (J Med Chem, 2006)
